Assay results: patent publication US20020114734A1, “Microplate thermal shift assay apparatus for ligand development and multi-variable protein chemistry optimization” (priority 1996, published 2002)
Read-outs that look alike come from different tables or passages of the source.

Experiments:
[1] = target: T1, heparin binding site of human α-thrombin (Homo sapiens, UniProt P00734); experiment: Microplate thermal shift assay, ligands binding to the heparin binding site, turbidity as signal
T1 construct: A stock human α-thrombin solution; purchased Enzyme Research Labs
Description: Assays for ligands that bind to the heparin binding site of human α-thrombin are more difficult to perform than assays for ligands that bind to the active site of human α-thrombin. At the heparin binding site, no substrate is hydrolyzed, so no spectrophotometric signal can be amplified for instrumental detection. Heparin activity is usually estimated in biological clotting time assays. […] Thus, heparin binding to human α-thrombin represents the kind of challenge encountered with the vast majority of non-enzyme receptor/ligand binding events, which are commonly observed for hormone/receptor interactions, repressor/DNA interactions, neurotransmitter/receptor interactions, etc. Several heparin-like sulfated oligosaccharides and sulfated naphthalene compounds were assayed by the microplate thermal shift assay. Using the thermal shift assay, it was possible to use a single compound per well to quickly rank the compounds in order of increasing binding affinity, with Kd's ranging over three orders of magnitude (see Table 4). Like the experiment in Example 1, the thermal shift assay results agreed closely with the results obtained through an alternative method, which required a series of laborious (15 to 20 single determinations) fluorescence quench assays over a wide range of concentrations of low MW heparin (Olson, S. T. et al., J. Biol. Chem. 266:6342-6352 (1991)).

[2] = target: T2, acidic fibroblast growth factor (aFGF) (Homo sapiens, UniProt P05230); experiment: Microplate thermal shift assay for ligands binding to aFGF, turbidity as signal
T2 construct: host or cells: E. coli
T2 sequence (P05230 whole entry, species assumed): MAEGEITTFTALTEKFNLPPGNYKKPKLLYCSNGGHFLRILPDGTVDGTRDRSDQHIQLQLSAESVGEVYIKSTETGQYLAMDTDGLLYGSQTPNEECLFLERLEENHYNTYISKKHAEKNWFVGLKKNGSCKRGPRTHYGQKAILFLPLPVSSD
Description: The second therapeutic receptor tested in the microplate thermal shift assay was acidic fibroblast growth factor (aFGF), a growth factor that plays a key role in angiogenesis (Folkman, J. et al., J. Biol. Chem. 267:10931-10934 (1992)). A synthetic gene for this protein was purchased from R&D Systems (Minneapolis, Minn.), and was cloned and expressed in E. coli using methods similar to those described for basic fibroblast growth factor (bFGF) (Thompson, L. D. et al., Biochemistry 33:3831-3840 (1994); Pantoliano, M. W. et al., Biochemistry 33:10229-10248 (1994); Springer, B. A. et al., J. Biol. Chem. 269:26879-26884 (1994)). Recombinant aFGF was then purified by heparin-sepharose affinity chromatography as described (Thompson, L. D. et al., Biochemistry 33:3831-3840 (1994)). aFGF is also known to bind heparin/heparan, which is a cofactor for mitogenic activity. […] A microplate thermal assay of these compounds was set up in a way similar to that described above for human α-thrombin. […] The affinity constants covered a fairly broad range of binding affinities, with pentosan PSO4 showing the highest affinity.

[3] = target: T3, heparin binding site of basic fibroblast growth factor (bFGF) (Homo sapiens, UniProt P09038); experiment: Microplate thermal shift assay for ligands binding to bFGF; conditions: read-out: binding affinity
T3 construct: host or cells: E. coli
T3 sequence (P09038 134-288, species assumed): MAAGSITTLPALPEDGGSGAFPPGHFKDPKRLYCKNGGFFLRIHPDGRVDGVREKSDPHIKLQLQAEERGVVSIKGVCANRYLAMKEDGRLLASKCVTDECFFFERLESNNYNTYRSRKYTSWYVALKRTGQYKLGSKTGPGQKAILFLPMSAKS
Description: The microplate thermal shift assay was used to assess ligands for binding to the heparin binding site of basic fibroblast growth factor (bFGF). The gene for bFGF was purchased from R&D Systems and was cloned and expressed in E. coli as previously described (Thompson, L. D. et al., Biochemistry 33:3831-3840 (1994); Pantoliano, M. W. et al., Biochemistry 33:10229-10248 (1994); Springer, B. A. et al., J. Biol. Chem. 269:26879-26884 (1994)).

[4] = system: D(II) domain of human FGF receptor 1; experiment: Microplate thermal shift assay for ligands binding to D(II) FGFR1, fluorescence emission as signal
Chain of D(II) domain of human FGF receptor 1 (P11362 158-246 limits assumed): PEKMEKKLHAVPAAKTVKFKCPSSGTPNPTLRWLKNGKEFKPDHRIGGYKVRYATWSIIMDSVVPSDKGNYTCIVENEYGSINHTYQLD
Description: The microplate thermal-shift assay was employed to test the binding of heparin 5000 and pentosan PSO4 to the known heparin binding site in the D(II) domain of fibroblast growth factor receptor 1 (FGFR1). D(II) FGFR1 is a 124 residue domain which is responsible for most of the free energy of binding for bFGF. D(II) FGFR1 was cloned and expressed in E. coli. Recombinant D(II) FGFR1 was renatured from inclusion bodies essentially as described (Wetmore, D. R. et al., Proc. Soc. Mtg., San Diego, Calif. (1994)), except that a hexa-histidine tag was included at the N-terminus to facilitate recovery by affinity chromatography on a Ni^2+ chelate column (Janknecht, R. et al., Natl. Acad. Sci. USA 88:8972-8976 (1991)). D(II) FGFR1 was further purified on a heparin-sepharose column (Kan, M. et al., Science 259:1918-1921 (1993); Pantoliano, M. W. et al., Biochemistry 33:10229-10248 (1994)). Purity was >95%, as judged by SDS-PAGE. The D(II) FGFR1 protein was concentrated to 12 mg/mL (˜1 mM) and stored at 4° C.
The D(II) FGFR1 protein was dissolved in an ANS solution to a concentration of […] (70 μM). The quantum yield for ANS bound to the denatured form of D(II) FGFR1 was lower than the quantum yield for ANS bound to human α-thrombin. Because ANS fluorescence is very environment dependent (see Lakowicz, I. R. Principles of Fluorescence Spectroscopy, Plenum Press, New York (1983)), the quantum yield observed for the denaturation of different proteins will vary. For D(II) FGFR1, the signal for the turbidity version of the assay, however, was nearly undetectable. Despite the decreased sensitivity for D(II) FGFR1, ANS rescued this system for the microplate assay. A similar-result was obtained for Factor Xa, except that the fluorescence quantum yield for ANS bound to denatured Factor Xa was almost as good as it was for human α-thrombin.

bFGF = bFGF (Homo sapiens, UniProt P09038); conditions: binding to bFGF by isothermal titrating calorimetry; read-out: Ki (298° K) Literature; cited from earlier work
Chain of bFGF (P09038 134-288, species assumed): as the sequence (P09038 134-288, species assumed) above

D(II)-D(III) FGFR1 = conditions: titrating calorimetry, read-out: Kd (298° K) Literature; cited from earlier work
Chain of D(II)-D(III) FGFR1 (P11362 150-254 limits assumed): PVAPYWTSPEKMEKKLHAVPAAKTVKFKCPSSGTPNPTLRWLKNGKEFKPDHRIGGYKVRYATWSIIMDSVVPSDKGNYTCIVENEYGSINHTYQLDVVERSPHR

[5] = literature; cited from earlier work
[6] = many effects described as coagulation anomalies; cited from earlier work
[7] = equation (1), estimated ΔHu 60.0 kcal/mole, ΔCpu 0.95 kcal/mole-°K, read-out: Kd at Tm

Kd ([1]; calculated with equation (1), read-out: Kd at Tm): 2.43 µM | Kd ([1]; estimated with equation (3), ΔHL estimated −10.0 kcal/mole, read-out: Kd at 298° K Observed): 0.427 µM | affinity at Tm, fold higher than the affinity of heparin 5000 ([1]; thermal shift assay, at Tm): 7 fold | Tm ([1]; thrombin/ligand complex, 11 μM thrombin, ligand 40-102 μM, turbidity): 332.15 ° K | Tm ([2]; aFGF/ligand, aFGF 0.25 mg/mL, ligand 47-200 μM, turbidity): 336.15 ° K | Kd [2, 7]: 0.208 µM | Kd ([2]; equation (3), ΔHL estimated −10.0 kcal/mole, read-out: Kd at 298° K Observed): 0.031 µM | Kd [3]: 0.055 µM | Tm ([4]; D(II) FGFR1 70 μM, 136 μM ANS, ligand 150-156 μM): 319.4 ° K | Kd [4, 7]: 19.1 µM | Kd ([4]; equation (3), ΔHL −12.1 (pentosan PSO4) and −7.48 kcal/mole (heparin 5000), read-out: Kd at 298° K Observed): 4.9 µM
Substance: pentosan polysulfate [Pentosan PSO4]
Ki (bFGF): 0.088 µM | Kd (D(II)-D(III) FGFR1): 10.9 µM | anticoagulant properties [5]: anticoagulant properties | outcome of clinical trials [6]: discounted due to toxic effects
